Laboratory results reported in patent US12611406B2, “Oxopiperazine derivatives for the treatment of cancer” (Inthera Bioscience AG, priority 2020, dated 2026).

What was measured:
[1] = system: 22Rv1; assay: S-phase arrest (cell cycle FACS); assay type: cell-based; parameters: key: “+” (present); “−” (absent); settings: Rb wt, p53 wt
Method: (§1) Cell cycle phase distribution in control (C) cells or cells treated at 20 or 200 nM Compound 1 for 24 hours (24 h) determined by fluorescence activated cell sorting (FACS) analysis, and detection of histone H2A variant H2A.X phosphorylation (γH2A.X, also referred to herein as gamma H2A.X or γH2A.X) by Western blot as DNA damage biomarker.
(§2) In table 1, “wt”=wild-type; “x”=cells harboring Rb and p53 deficiencies; “+” (present) or “−” (absent) indicate the arrest (i.e. accumulation) of cells in S-phase triggered by Compound 1, which coincided with accumulation of the DNA damage marker phosphorylated gamma H2AX (γH2AX; see FIG. 3A). These events are followed by activation of caspases 3 and 7 as indicators of cell apoptosis as indicated by “+” (present) or “−” (absent). In cancer cells with intact Rb and/or p53 functions (wt=wild-type), Compound 1 induced growth arrest but not a substantial increase of cells in S-phase (=S-phase arrest). Upon release of treatment, such cells are able to proliferate again.

[2] = system: BT-549; assay: S-phase arrest (cell cycle FACS); assay type: cell-based; parameters: key: “+” (present); “−” (absent); settings: Rb x, p53 x
Method: as §1, §2

[3] = system: DU-145; assay: S-phase arrest (cell cycle FACS); assay type: cell-based; parameters: key: “+” (present); “−” (absent); settings: Rb x, p53 x
Method: as §1, §2

[4] = system: Hut-78; assay: S-phase arrest (cell cycle FACS); assay type: cell-based; parameters: key: “+” (present); “−” (absent); settings: Rb x, p53 x
Method: as §1, §2

[5] = system: LNCaP; assay: S-phase arrest (cell cycle FACS); assay type: cell-based; parameters: key: “+” (present); “−” (absent); settings: Rb wt, p53 wt
Method: as §1, §2

[6] = system: NCI-H146; assay: S-phase arrest (cell cycle FACS); assay type: cell-based; parameters: key: “+” (present); “−” (absent); settings: Rb x, p53 x
Method: as §1, §2

[7] = system: NCI-H209; assay: S-phase arrest (cell cycle FACS); assay type: cell-based; parameters: key: “+” (present); “−” (absent); settings: Rb x, p53 x
Method: as §1, §2

[8] = system: NCI-H660; assay: S-phase arrest (cell cycle FACS); assay type: cell-based; parameters: key: “+” (present); “−” (absent); settings: Rb x, p53 x
Method: as §1, §2

[9] = system: NCI-H69; assay: S-phase arrest (cell cycle FACS); assay type: cell-based; parameters: key: “+” (present); “−” (absent); settings: Rb x, p53 x
Method: as §1, §2

[10] = system: NCI-H82; assay: S-phase arrest (cell cycle FACS); assay type: cell-based; parameters: key: “+” (present); “−” (absent); settings: Rb x, p53 x
Method: as §1, §2

[11] = system: SCLC-21H; assay: S-phase arrest (cell cycle FACS); assay type: cell-based; parameters: key: “+” (present); “−” (absent); settings: Rb x, p53 x
Method: as §1, §2

[12] = system: Y-79; assay: S-phase arrest (cell cycle FACS); assay type: cell-based; parameters: key: “+” (present); “−” (absent); settings: Rb x, p53 wt
Method: as §1, §2

[13] = system: SNU-16; assay: SNU-16 gastric cancer CDX mouse model; assay type: in vivo
From the text: Left panel: Tumor growth curves. Right panel: Body weight development. […] QW: once weekly treatment. p.o.: per oral. QD: once daily treatment. BID: twice daily treatment. QW: once weekly treatment.
(§3) Values larger than 100% indicate tumor regression.

[14] = system: DU-145; assay: DU-145 CDX mouse model; assay type: in vivo; settings: once weekly 60 mg/kg/day as 30 mg/kg BID, 4 weeks; p <0.001
From the text: as §3

[15] = system: NCI-H69; assay: NCI-H69 small cell lung cancer CDX mouse model; settings: for Tumor growth inhibition: p <0.001
Method: The 30 mg/kg group was given initially QW at 30 mg/kg and from day 31 onwards was given once weekly at 60 mg/kg, as indicated.
In Table 2, tumor growth inhibition (TGI) calculations are based on additional growth of tumors, i.e., tumor sizes on the day of TGI estimation minus tumor sizes at the start of treatment are used for calculations. Values larger than 100% indicate tumor regression. […] The total daily dose of 60 mg/kg was administered as *single dose or given as **30 mg/kg BID (twice daily).

## CC(C)C[C@@H]1NCCN([C@@H](CC(C)C)C(=O)N2CCC3(C[C@@H]2C)OCC(CN2CCCC2)CO3)C1=O (stereo partly drawn) [Compound 1, (S)-3-isobutyl-1-((S)-4-methyl-1-((S)-8-methyl-3-(pyrrolidin-1-ylmethyl)-1,5-dioxa-9-azaspiro[5.5]undecan-9-yl)-1-oxopentan-2-yl)piperazin-2-one]
[1]
  S-Phase Arrest: −
[2]
  S-Phase Arrest: +
[3]
  S-Phase Arrest: +
[4]
  S-Phase Arrest: +
[5]
  S-Phase Arrest: −
[6]
  S-Phase Arrest: +
[7]
  S-Phase Arrest: +
[8]
  S-Phase Arrest: +
[9]
  S-Phase Arrest: +
[10]
  S-Phase Arrest: +
[11]
  S-Phase Arrest: +
[12]
  S-Phase Arrest: −
[13]; once weekly 60 mg/kg/day as 30 mg/kg BID, 6 weeks, p <0.001
  Tumor growth inhibition: 103% (<0.001)/**6 weeks
[13]; weekly 30 mg/kg BID compared to 3 mg/kg daily
  anti-tumor efficacy, weekly vs daily: comparable anti-tumor efficacy
[14]
  Tumor growth inhibition: 72 (<0.001)/**4 weeks %
[15]; 3 mg/kg oral daily continuous
  body weight: slight body weight loss
  tumor response: regressions of tumors
[15]; 3 mg/kg oral every other week
  tolerability: well tolerated
[15]; 3 mg/kg oral, every other week compared to same dose daily
  anti-tumor activity, every other week vs daily: almost the same anti-tumor growth activity
[15]; 30 mg/kg once every seven days, 60 mg/kg weeks 4 to 7, compared to 3 mg/kg daily
  anti-tumor activity, once weekly vs daily: same anti-tumor growth activity
[15]; intermittent (once weekly) dosing
  body weight: did not cause significant body weight decreases
[15]; once weekly 15 mg/kg/day, 7 weeks
  Tumor growth inhibition: 58% (<0.001)/
[15]; once weekly 30 mg/kg/day, 3 weeks
  Tumor growth inhibition: 76% (<0.001)/
[15]; once weekly 60 mg/kg/day, 4 weeks, after 3 weeks at 30 mg/kg
  Tumor growth inhibition: 103% (<0.001)/
